# Data published in publication PMC6271910, “Exploiting Natural Products to Build Metalla-Assemblies: The Anticancer Activity of Embelin-Derived Rh(III) and Ir(III) Metalla-Rectangles” (Molecules, 2014).
# Where two headings read alike, the source gives them in different places.
# Key:
# CT DNA (calf-thymus DNA) = experiment: Thermal denaturation study of CT DNA; format: binding; settings: for ΔTm of CT DNA: incubation 12 h at 37 °C, PE buffer pH 7.4, complex/DNA ratio 1:1, CT DNA alone melts at 59.3 °C
# Experimental: The DNA binding affinity of the synthesized complexes was evaluated through thermal denaturation studies with duplex CT DNA using a modified reported procedure. […]
# [1] = tested on: HEK-293 (normal human embryonic kidney cells); experiment: MTT assay, HEK-293; format: cell-based; settings: for IC50: 48 h, MTT, noncancerous cells, averaged over three experiments, read-out: Half maximum inhibitory concentration (IC50), HEK-293; for Selectivity for cancerous over noncancerous cells (HEK-293): IC50 on HEK-293 compared with cancer cell lines
# Experimental: (§1) To understand the effect of these complexes on the proliferation of cancerous and noncancerous cells, MTT assays were carried out following the protocol reported by Wilson et al.. The noncancerous (HEK-293) and the human cancerous cell lines (DU-145, A-549 and HeLa) were grown according to the supplier’s recommendations. All cell lines were treated for 48 h at different concentrations of complexes (0.25 µM, 0.5 µM, 0.75 µM, 1 µM, 5 µM, 10 µM, 25 µM, 50 µM and 100 µM). After treatment, the number of viable cells was estimated using a MTT assay. […] Cells treated with doxorubicin in the same concentration range were considered as controls.
# (§2) The anticancer activity of the complex was determined using the 3-(4,5-dimethylthiazol-2-yl)-2,5-diphenyltetrazolium bromide (MTT) assay. First 1 × 10^4 cells per well were seeded in Dulbecco’s modified Eagle’s medium (DMEM, 100 µL) supplemented with 10% fetal bovine serum in each well of 96-well microculture plates and incubated for 24 h at 37 °C in a CO2 incubator. Complexes were diluted to the desired concentrations in culture medium and added to the wells with respective vehicle control. After 48 h of incubation, MTT (10 µL, 5 mg mL^−1) was added to each well and the plates were further incubated for 4 h. Then the supernatant from each well was carefully removed, formazan crystals were dissolved in DMSO (100 µL) and absorbance at 570 nm was recorded.
# [2] = tested on: DU-145 cells (prostate cancer); experiment: MTT assay, DU-145; format: cell-based, human; settings: averaged over three experiments, read-out: Half maximum inhibitory concentration (IC50), DU-145
# Experimental: as §1, §2
# [3] = tested on: A-549 cells (lung cancer); experiment: MTT assay, A-549; format: cell-based, human
# Experimental: as §1, §2
# CT DNA [4] = experiment: UV-visible spectroscopic titrations with CT DNA; format: binding, calf; settings: 25 µM complex, KBPES buffer pH 7.0, 25 °C
# Description: The mode of the DNA-complex interaction was further studied by UV-visible experiments. The results from these studies will indicate the mode of DNA-complex interaction. The UV-visible spectra of metalla-rectangles 4, 6 and 8, the iridium derivatives, show a prominent absorption band at 210 nm. […] The hyperchromicity of the Soret band of the metalla-rectangles was more evident at 210 nm. A continuous hyperchromicity of the Soret band upon addition of metalla-rectangles 4, 6 and 8 to a CT DNA solution is an indication of electrostatic binding or partial unwinding of the CT DNA [27].
# UV-Visible spectroscopic titrations were performed using an ABI Lambda 40 UV/Vis spectrophotometer (Foster City, CA, USA) at 25 °C using 1 cm path length quartz cuvettes. Stock solutions of complex (25 µM) was prepared in DMSO and CT DNA (25 µM) were prepared in KBPES buffer (30 mM Potassium Phosphate with 100 mM KCl, pH 7.0). The quartz cells were thoroughly cleaned with distilled water and followed by nitric acid (~0.1 N) after each experiment. UV-visible absorption titrations were done by adding CT DNA stock solution (25 µM) in KBPES buffer (30 mM Potassium Phosphate with 100 mM KCl, pH 7.0) to the quartz cuvette containing approximately 25 µM complex solutions. Preparation of CT DNA and complex solutions was done on the same day as the experiment. Titrations were performed until the band remained at a fixed wavelength upon successive additions of CT DNA.
# [5] = tested on: HeLa cells (cervical cancer); experiment: MTT assay, HeLa; format: cell-based, human; settings: 48 h, averaged over three experiments, read-out: Half maximum inhibitory concentration (IC50), HeLa
# Experimental: as §1, §2
# A-549 cells [6] = experiment: Cell cycle assay by flow cytometry (propidium iodide); format: cell-based, human; settings: A-549, 500 nM, 24 h; for Sub G1 (%): control 1.37; for G2/M (%): control 16.37; for S (%): control 17.15; for G0/G1 (%): control 54.62
# Experimental: In order to corroborate the results obtained in the MTT assays and to better understand the action of metalla-rectangles 3 and 8 on cells, the effects on the cell cycle inhibition and the interference in cell proliferations using a standard cell cycle assay were studied. The results obtained are presented in (Table 2). On analyzing the results, it was evident that the cell cycle was inhibited at the subG1 phase with both metalla-rectangles.
# Flow cytometric analysis (FACS) was performed to evaluate the distribution of the cells in different cell cycle phases. A-549 cells were incubated with metalla-rectangles 3 and 8 at 500 nM concentration for 24 h. Untreated cells were considered as control sample. Untreated and treated cells were harvested, washed with PBS, fixed in ice cold 70% ethanol and stained with propidium iodide (Sigma Aldrich, St. Louis, MO, USA). Cell cycle was performed by using Becton Dickinson FACS Caliber (Franklin Lakes, NJ, USA).
# A-549 cells [7] = experiment: Mitochondrial outer membrane permeability assay (MitoTracker Red, confocal microscopy); format: cell-based, human; settings: A-549, 500 nM
# Experimental: The aggregation of mitochondria was reported to occur when cells enter into apoptosis, and accordingly led to the release of cytochrome c into the cytosol, which in turn triggered the cascade pathway to apoptosis. From Figure 6, it was clear that mitochondria were getting bundled with metalla-rectangle 3, indicating the onset of apoptosis in A-549 cells.
# Compound [3](CF3SO3)4 (500 nM) with treated and untreated A-549 cells were incubated in a medium containing MitoTracker Red™ (50 nM) for 30 min at culture conditions recommended by the supplier. Cells were washed and fixed with 4% paraformaldehyde for 15 min, and permeabilized with Triton X-100 (0.1%) for each 10 min. The cover glasses after PBS wash were mounted on to the glass slides, sealed with nail polish and observed using laser scanning confocal microscopy (Leica TCS SP5, Heidelberg, Germany). The MitoTracker Red™ was excited using 543 nm laser source and the fluorescence emission signals were collected at 570 nm to 635 nm.
# A-549 cells [8] = experiment: Apoptosis assay (annexin-V/propidium iodide flow cytometry); format: cell-based, human; settings: A-549, 500 nM, 48 h; for Early apoptotic (%): control 0.84; for Late apoptotic (%): control 6.18; for Necrotic (%): control 14.61; for Living cells (%): control 78.37; for Total apoptotic cells (%): early + late apoptotic, control 7.02
# CT DNA [9] = experiment: CD spectroscopic study with CT DNA; format: binding, calf; settings: CT DNA/complex 1:0.5 to 1:1, KBPES buffer pH 7.0, 25 °C
# Experimental: Circular dichroism (CD) studies can provide information on the changes in the DNA conformation upon interactions with small molecules. These changes in the DNA topology are giving useful information on the nature of the DNA-complex interactions. […] These bands are characteristic to the profile of the B form of DNA [24].
# Circular dichroism (CD) experiments were performed using a Jasco 815 CD spectropolarimeter (Jasco, Tokyo, Japan). CD spectra were recorded from 230 to 300 nm to find the conformational changes in the CT DNA after interaction with the complexes. For each CD experiment, CT DNA (15 × 10^‒6 M) was used initially. Further, for the characterization of complex‒DNA interaction, the CD spectra were recorded in 1:0.5 and 1:1 CT DNA/complex molar ratios. CD titrations were performed in KBPES buffer (30 mM Potassium Phosphate with 100 mM KCl, pH 7.0) at 25 °C. Each spectrum was recorded three times and the average of three scans was taken.
# [10] = 48 h, averaged over three experiments, read-out: Half maximum inhibitory concentration (IC50), A-549
# [11] = 48 h, read-out: IC50 in A-549 cells
Molecule,ΔTm of CT DNA (CT DNA (calf-thymus DNA)) [°C],IC50 [1] [nM],IC50 ([2]; 48 h) [nM],"IC50 [3, 10] [nM]",Change of the absorption (Soret) band at 210 nm on addition of CT DNA (CT DNA [4]),IC50 [5] [nM],also measured
"[(η^5-C5Me5)4Rh4(μ2-1,2-bis(4-pyridyl)ethylene-ĸN)2(μ4-C6HRO4-ĸO)2](CF3SO3)4 [[7](CF3SO3)4]",8.2,62100 ± 300,4980 ± 300,2010 ± 200,same hyperchromicity,5750 ± 200,–
"[(η^5-C5Me5)4Ir4(μ2-4,4'-bipyridine-ĸN)2(μ4-C6HRO4-ĸO)2](CF3SO3)4 [[6](CF3SO3)4]",7.9,40300 ± 400,2530 ± 200,840 ± 100,continuous increase of its intensity,1040 ± 300,–
[(η^5-C5Me5)4Ir4(μ2-pyrazine-ĸN)2(μ4-C6HRO4-ĸO)2](CF3SO3)4 [[4](CF3SO3)4],6.8,31200 ± 500,16000 ± 400,3180 ± 200,continuous increase of its intensity,4160 ± 300,–
[(η^5-C5Me5)4Rh4(μ2-pyrazine-ĸN)2(μ4-C6HRO4-ĸO)2](CF3SO3)4 [[3](CF3SO3)4],12.9,62000 ± 500,540 ± 200,500 ± 100,same hyperchromicity,520 ± 200,"Melting temperature of CT DNA in the presence of the compound (CT DNA (calf-thymus DNA); CT DNA alone 59.3 °C): 72.2 °C; Selectivity for cancerous over noncancerous cells (HEK-293) [1]: two orders of magnitude; IC50 ([2]; 48 h, listed as [3]^4+): 500 nM; IC50 [3, 11]: ~500 nM; Sub G1 (%) (A-549 cells [6]): 31.97%; G2/M (%) (A-549 cells [6]): 1.35%; S (%) (A-549 cells [6]): 2.87%; G0/G1 (%) (A-549 cells [6]): 56.29%; IC50 ([5]; listed as [3]^4+): 500 nM; Effect on mitochondria distribution (MitoTracker Red) (A-549 cells [7]): aggregations of mitochondria were observed; Early apoptotic (%) (A-549 cells [8]): 4.73%; Late apoptotic (%) (A-549 cells [8]): 23.30%; Necrotic (%) (A-549 cells [8]): 11.57%; Living cells (%) (A-549 cells [8]): 60.40%; Total apoptotic cells (%) (A-549 cells [8]): 28.03%; Total apoptotic cells (%) (A-549 cells [8]; listed as 3): about 28.03%; Change of the positive CD band of CT DNA (275 nm) (CT DNA [9]): slight hyperchromicity"
"[(η^5-C5Me5)4Ir4(μ2-1,2-bis(4-pyridyl)ethylene-ĸN)2(μ4-C6HRO4-ĸO)2](CF3SO3)4 [[8](CF3SO3)4]",12.7,70800 ± 400,720 ± 200,670 ± 400,continuous increase of its intensity,590 ± 200,"Selectivity for cancerous over noncancerous cells (HEK-293) [1]: two orders of magnitude; IC50 [3, 11]: ~670 nM; Sub G1 (%) (A-549 cells [6]): 11.98%; G2/M (%) (A-549 cells [6]): 3.49%; S (%) (A-549 cells [6]): 7.95%; G0/G1 (%) (A-549 cells [6]): 66.54%; Early apoptotic (%) (A-549 cells [8]): 1.58%; Late apoptotic (%) (A-549 cells [8]): 13.04%; Necrotic (%) (A-549 cells [8]): 22.92%; Living cells (%) (A-549 cells [8]): 62.46%; Total apoptotic cells (%) (A-549 cells [8]): 14.62%; Change of the positive CD band of CT DNA (275 nm) (CT DNA [9]): higher hyperchromicity"
"COc1cccc2c1C(=O)c1c(O)c3c(c(O)c1C2=O)C[C@@](O)(C(=O)CO)C[C@@H]3O[C@H]1C[C@H](N)[C@H](O)[C@H](C)O1 [doxorubicin, reference compound]",9.5,–,–,–,–,–,"IC50 ([2]; Homo sapiens, DU-145, 48 h): 1280 ± 200 nM; IC50 ([3]; Homo sapiens, A549, 48 h, averaged over three experiments, read-out: Half maximum inhibitory concentration (IC50), A-549): 850 ± 100 nM; IC50 ([5]; Homo sapiens, HeLa): 910 ± 200 nM"
"[(η^5-C5Me5)4Rh4(μ2-4,4'-bipyridine-ĸN)2(μ4-C6HRO4-ĸO)2](CF3SO3)4 [[5](CF3SO3)4]",7.3,41300 ± 400,4670 ± 200,670 ± 100,same hyperchromicity,1010 ± 300,–
